Among the test systems are EKVX NSCLC; HCC-2998 colon; HCT-116 colon; HOP-62 NSCLC; HT29 colon; M14 melanoma; SF-268 CNS; SK-OV-3 ovarian; SW-620 colon; MDA-MB-435.
Holding throughout (test): inhibition of tumour cell growth, NCI panel, 48 h

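How tested: cells in 96-well plates exposed to compound for 48 hours at five concentrations. At the GI50, growth is halved. TGI marks complete inhibition of growth.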

Take `O=C(N/C(=C\c1cc(Cl)ccc1Cl)c1nc2ccc(Cl)cc2[nH]1)c1ccccc1`: the TGI in the assay on EKVX NSCLC worked out at 50.6 µM; with HCC-2998 colon, 32.4 µM; in the assay on HCT-116 colon, 22.3 µM; in the assay on HOP-62 NSCLC, 32.3 µM; with HT29 colon, 30.9 µM; with M14 melanoma, 31.1 µM. Moreover, the values for the TGI in the assay on SF-268 CNS, in the assay with SK-OV-3 ovarian and in the assay on SW-620 colon were 28.1 µM, 51.8 µM and 31.1 µM, respectively.
With `CCN(CC)C(=O)COc1cc2c(O)c3c(O)c(C)c4c(c13)C(=O)C(C)(OC=CC(OC)C(C)C(OC(C)=O)C(C)C(O)C(C)C(O)C(C)C=CC=C(C)C(=O)N2)O4` (centres undefined), the TGI with EKVX NSCLC, in the assay with HCC-2998 colon, in the assay with HCT-116 colon, in the assay on HOP-62 NSCLC, in the assay with HT29 colon and in the assay on M14 melanoma was greater than 100 µM each time. In addition, the TGI in the assay on SF-268 CNS, with SK-OV-3 ovarian and with SW-620 colon was greater than 100 µM each time.
As to `CCCCCCCCCCCCCP(=O)(NCC(N)=O)OCC` (centres undefined), the TGI in the assay with EKVX NSCLC came to 41 µM; in the assay with HCC-2998 colon it was 35.3 µM; with HCT-116 colon it was 28 µM; with HOP-62 NSCLC, 32 µM; with HT29 colon, 31.7 µM; in the assay on M14 melanoma, 30.6 µM. The TGI in the assay on SF-268 CNS stood at 38.4 µM; in the assay on SK-OV-3 ovarian, 41.8 µM; in the assay on SW-620 colon, 41 µM.
In the case of `CN1CCc2c1nc(-c1cccnc1)c1c2N(C)CC1`, the TGI with EKVX NSCLC, in the assay on HCC-2998 colon, in the assay on HCT-116 colon, with HOP-62 NSCLC, in the assay with HT29 colon and in the assay with M14 melanoma was greater than 100 µM throughout. Moreover, the TGI with SF-268 CNS, in the assay with SK-OV-3 ovarian and in the assay with SW-620 colon was greater than 100 µM in each case.
On to `CCC1C(=O)OCc2c1cc1n(c2=O)C(CC)c2c-1nc1ccccc1c2Cl` (centres undefined), for which the TGI was 80.4 µM in the assay on EKVX NSCLC; 87.1 µM in the assay on HOP-62 NSCLC; 77.1 µM with HT29 colon; greater than 100 µM in the assay on M14 melanoma; greater than 100 µM in the assay with SF-268 CNS; 89 µM in the assay with SK-OV-3 ovarian. Besides, the TGI with SW-620 colon is greater than 100 µM.
With `COC(=O)/C(C#N)=C1\CCc2ccccc21`, the TGI in the assay with EKVX NSCLC, with HCC-2998 colon, in the assay on HT29 colon, in the assay on M14 melanoma, with SF-268 CNS and with SK-OV-3 ovarian was greater than 100 µM each time. The TGI in the assay on SW-620 colon was greater than 100 µM.
Consider `N.N.N.N.N.O=S(=O)([O-])C(F)(F)F.O=S(=O)([O-])C(F)(F)F.[Os+8]`, for which the GI50 was 43.6 µM in the assay on EKVX NSCLC; 7.02 µM in the assay with HCC-2998 colon; 5.37 µM in the assay on HCT-116 colon; 6.34 µM with HOP-62 NSCLC; 15.4 µM in the assay with HT29 colon; 14.2 µM in the assay with M14 melanoma. The values for the GI50 with SK-OV-3 ovarian and in the assay with SW-620 colon were 20.6 µM and 8.48 µM, respectively. Moreover, the TGI in the assay on EKVX NSCLC is greater than 100 µM; in the assay on HCC-2998 colon it was 20.2 µM; in the assay on HCT-116 colon it was 18 µM; in the assay with HOP-62 NSCLC, 20 µM; in the assay on HT29 colon it was 55.3 µM; with M14 melanoma, 28.7 µM. The TGI was 60.2 µM with SK-OV-3 ovarian and 41.4 µM in the assay with SW-620 colon.
`COC(=O)C#CCC1CCCC1C1SCCS1` (centres undefined): the TGI in the assay with EKVX NSCLC, with HCC-2998 colon, with HCT-116 colon, in the assay with HOP-62 NSCLC, in the assay with HT29 colon and in the assay on M14 melanoma was greater than 100 µM each time. The TGI in the assay on SF-268 CNS, in the assay with SK-OV-3 ovarian and in the assay with SW-620 colon was greater than 100 µM in each case.
Consider `O=C(O)[C@@H](NS(=O)(=O)c1ccc2ccccc2c1)c1ccccc1`, for which the TGI in the assay on HCC-2998 colon, in the assay with HT29 colon, in the assay on M14 melanoma, with SF-268 CNS and in the assay with SK-OV-3 ovarian was greater than 100 µM each time.
`O=C(NCC(=O)N1CCOC1=O)OCc1ccccc1`: the TGI in the assay on EKVX NSCLC, with HCC-2998 colon, in the assay with HCT-116 colon, in the assay on HOP-62 NSCLC, in the assay with HT29 colon and in the assay on M14 melanoma was greater than 100 µM throughout. Further, the TGI in the assay on SF-268 CNS, in the assay on SK-OV-3 ovarian and in the assay on SW-620 colon was greater than 100 µM in each case.
Turning to `CCN(CC)CCC(CNc1c(C)cnc2cc(Cl)ccc12)c1ccc(Cl)cc1` (centres undefined), the GI50 with EKVX NSCLC is 5.46 µM; in the assay with HOP-62 NSCLC, 10.6 µM; with SF-268 CNS, 11.1 µM; in the assay on SK-OV-3 ovarian, 15.1 µM; with SW-620 colon it was 4.91 µM. Besides, the TGI was 19.5 µM in the assay on EKVX NSCLC; 23.8 µM in the assay on HOP-62 NSCLC; 26.1 µM in the assay with SF-268 CNS; 28.9 µM with SK-OV-3 ovarian; 19.6 µM with SW-620 colon.
As to `COc1ccc2c(c1)C(=O)c1c-2c(N2CCNCC2)nc2ccccc12`, the GI50 in the assay with EKVX NSCLC is 4.65 µM; in the assay on HT29 colon, 1.49 µM; in the assay with M14 melanoma, 1.91 µM; in the assay on MDA-MB-435, 4.93 µM; in the assay on SF-268 CNS it was 2.14 µM; with SK-OV-3 ovarian, 6 µM. Besides, the GI50 in the assay with SW-620 colon was 1.32 µM. Besides, the TGI in the assay with EKVX NSCLC is 17.5 µM; in the assay on HT29 colon, 3.34 µM; in the assay with M14 melanoma, 3.51 µM; with MDA-MB-435 it was 17.9 µM; in the assay on SF-268 CNS, 11.9 µM; in the assay on SK-OV-3 ovarian it was 19.2 µM. In the assay on SW-620 colon, this molecule came in with a TGI of 2.6 µM.
Regarding `NC(=O)c1cccc(-c2cc(C(N)=O)ccc2Cl)c1`, the GI50 was 4.37 µM in the assay with EKVX NSCLC; 7.43 µM in the assay on HCC-2998 colon; 2.35 µM in the assay with HCT-116 colon; 3.51 µM with HOP-62 NSCLC; 1.19 µM with HT29 colon; 5.68 µM in the assay on SF-268 CNS. Besides, the GI50 in the assay with SK-OV-3 ovarian was 5.63 µM; with SW-620 colon, 2.14 µM. Also, the TGI in the assay on EKVX NSCLC, in the assay on HCC-2998 colon, in the assay on HCT-116 colon, in the assay with HOP-62 NSCLC, in the assay on HT29 colon and in the assay with SF-268 CNS was greater than 100 µM throughout. In addition, the TGI in the assay with SK-OV-3 ovarian and in the assay with SW-620 colon was greater than 100 µM throughout.

Source of the values: PubChem BioAssay (NCI).
